Experimental data taken from publication PMC9490041, “Determinants of affinity, specificity, and phase separation in a supramodule from Post-synaptic density protein 95” (iScience, 2022).
Like-named read-outs stand apart in the source and are kept apart here. Ends that are not written are not given here.

Tests used:
Test in all cases: FP displacement (competition) of FITC-15 AA CRIPT by library peptide, IC50 and Ki
PSG G335A (PSD-95) = conditions: for IC50: read-out: IC50 (µM), PSG G335A; for Ki: read-out: Ki (µM), PSG G335A
PSG G322A G335A (PSD-95) = conditions: for IC50: read-out: IC50 (µM), PSG G322A G335A
PSG G322A (PSD-95) = conditions: for IC50: read-out: IC50 (µM), PSG G322A; for Ki: read-out: Ki (µM), PSG G322A
[1] = FP displacement of FITC-15 AA CRIPT probe by PSD library peptide, protein PSG G335A
[2] = FP displacement of FITC-15 AA CRIPT probe by PSD library peptide, protein PSG G322A G335A
[3] = read-out: Ki (µM), PSG G322A G335A, FP displacement of FITC-15 AA CRIPT probe by PSD library peptide, protein PSG G322A G335A
[4] = FP displacement of FITC-15 AA CRIPT probe by PSD library peptide, protein PSG G322A
[5] = FP displacement of FITC-15 AA CRIPT probe by acetylated PSD library peptide (P-13 to P0 plus extra N-terminal Y)
[6] = read-out: Ki (µM), PSG G322A G335A, FP displacement of FITC-15 AA CRIPT probe by acetylated PSD library peptide
[7] = FP displacement of FITC-15 AA CRIPT probe by acetylated PSD library peptide

Molecule	IC50 (PSG G322A G335A (PSD-95); [2]) [µM]	Ki (PSG G322A G335A (PSD-95); [3]) [µM]	IC50 (PSG G322A (PSD-95); [4]) [µM]	IC50 (PSG G322A G335A (PSD-95); [5]) [µM]	Ki (PSG G322A G335A (PSD-95); [6]) [µM]	IC50 (PSG G335A (PSD-95); [7]) [µM]	Ki (PSG G335A (PSD-95); [7]) [µM]	IC50 (PSG G322A (PSD-95); [7]) [µM]	Ki (PSG G322A (PSD-95); [7]) [µM]	other results
CC[C@H](C)[C@H](NC(=O)[C@H](CCC(=O)O)NC(=O)[C@@H](NC(=O)[C@H](C)NC(=O)[C@@H](NC(=O)[C@@H](NC(=O)[C@H](CC(=O)O)NC(=O)[C@H](CCC(=O)O)NC(=O)[C@H](Cc1ccc(O)cc1)NC(=O)[C@@H]1CCCN1C(=O)[C@@H](NC(=O)[C@H](CC(=O)O)NC(=O)[C@H](C)NC(=O)CNC(=O)[C@H](Cc1ccc(O)cc1)NC(C)=O)[C@@H](C)CC)[C@@H](C)CC)[C@@H](C)CC)[C@@H](C)O)C(=O)O [LZTS1]	1120	388	–	–	–	–	–	–	–	IC50 (PSG G335A (PSD-95); [1]): 648 µM; Ki (PSG G335A (PSD-95); [1]): 231 µM
Ac-YERAANREEALEWEF [CUX2]	–	351	701	–	–	–	–	–	–	Ki (PSG G322A (PSD-95); [4]): 304 µM
Ac-YQSGPFIWIPSKEKL [DLG2]	–	–	–	734	254	2120	758	1420	615	–
CC[C@H](C)[C@H](NC(=O)[C@H](CCCNC(=N)N)NC(=O)[C@H](CCCNC(=N)N)NC(=O)[C@H](CCC(N)=O)NC(=O)[C@H](CC(N)=O)NC(=O)[C@H](CC(C)C)NC(=O)CNC(=O)[C@H](CO)NC(=O)[C@H](Cc1ccc(O)cc1)NC(=O)[C@H](CC(C)C)NC(=O)[C@H](CC(=O)O)NC(=O)[C@H](CCCNC(=N)N)NC(=O)[C@H](CCC(N)=O)NC(=O)CNC(=O)[C@H](Cc1ccc(O)cc1)NC(C)=O)C(=O)O [CD3E]	–	–	757	–	–	–	–	–	–	Ki (PSG G322A (PSD-95); [4]): 328 µM
CC[C@H](C)[C@H](NC(=O)[C@H](CO)NC(=O)[C@@H](NC(=O)[C@@H](NC(=O)[C@@H]1CCCN1C(=O)[C@H](CC(C)C)NC(=O)[C@H](C)NC(=O)[C@@H]1CCCN1C(=O)[C@H](Cc1ccc(O)cc1)NC(C)=O)[C@@H](C)O)C(C)C)C(=O)N[C@@H](CO)C(=O)N[C@@H](CO)C(=O)N[C@@H](CO)C(=O)N[C@@H](C)C(=O)N[C@@H](CCC(=O)O)C(=O)N[C@H](C(=O)O)C(C)C [DOC10]	–	–	–	2020	698	2010	718	1460	634	–
CC[C@H](C)[C@H](NC(=O)[C@H](CC(=O)O)NC(=O)[C@H](CCC(N)=O)NC(=O)CNC(=O)[C@@H](NC(=O)[C@H](CC(C)C)NC(=O)[C@@H]1CCCN1C(=O)[C@H](Cc1ccc(O)cc1)NC(C)=O)C(C)C)C(=O)N[C@H](C(=O)N[C@@H](CC(=O)O)C(=O)N[C@@H](CC(C)C)C(=O)N[C@@H](CCC(N)=O)C(=O)N[C@H](C(=O)N[C@@H](CCC(=O)O)C(=O)N[C@H](C(=O)O)C(C)C)[C@@H](C)O)[C@@H](C)CC [ADGRB1]	–	–	–	112	–	245	87	258	112	Ki (PSG G322A G335A (PSD-95); FP displacement of 5 nM FITC-15 AA CRIPT by non-labeled acetylated peptide, room temperature, Ki from IC50, PSG G322A G335A): 39 µM
Ac-YEPPEPKKSRRSVLL [CDC42]	1100	381	952	–	–	–	–	–	–	IC50 (PSG G335A (PSD-95); [1]): 1180 µM; Ki (PSG G335A (PSD-95); [1]): 421 µM
CC(=O)N[C@@H](Cc1ccc(O)cc1)C(=O)N[C@@H](CC(C)C)C(=O)N[C@@H](Cc1c[nH]cn1)C(=O)NCC(=O)N[C@@H](Cc1c[nH]cn1)C(=O)N[C@@H](CCCNC(=N)N)C(=O)N[C@@H](Cc1ccc(O)cc1)C(=O)N[C@@H](CO)C(=O)N[C@@H](CO)C(=O)NCC(=O)N[C@@H](CO)C(=O)N[C@@H](CCCNC(=N)N)C(=O)N[C@@H](CO)C(=O)N[C@@H](CC(C)C)C(=O)N[C@H](C(=O)O)C(C)C [IQEC3]	–	–	–	570	197	673	240	660	286	–
Ac-YEKAASREEPIEWEF [CUX1]	1280	–	1560	–	–	–	–	–	–	IC50 (PSG G335A (PSD-95); [1]): 1360 µM; Ki (PSG G335A (PSD-95); [1]): 485 µM; Ki (PSG G322A (PSD-95); [4]): 679 µM
CC(=O)N[C@@H](Cc1ccc(O)cc1)C(=O)N[C@@H](Cc1ccccc1)C(=O)N[C@H](C(=O)N[C@@H](Cc1ccc(O)cc1)C(=O)N[C@@H](Cc1c[nH]cn1)C(=O)N[C@H](C(=O)N[C@@H](CO)C(=O)N[C@@H](CC(=O)O)C(=O)NCC(=O)N[C@@H](CC(=O)O)C(=O)N[C@@H](C)C(=O)N[C@@H](CC(C)C)C(=O)N[C@@H](CC(C)C)C(=O)N[C@@H](CC(C)C)C(=O)N[C@@H](CC(C)C)C(=O)O)[C@@H](C)O)[C@@H](C)O [CX3C1]	740	256	–	–	–	–	–	–	–	–
CSCC[C@H](NC(=O)[C@H](CC(N)=O)NC(=O)[C@H](CCCCN)NC(=O)[C@H](CC(C)C)NC(=O)[C@@H](NC(=O)[C@H](CC(=O)O)NC(=O)[C@H](Cc1ccc(O)cc1)NC(C)=O)C(C)C)C(=O)N[C@H](C(=O)N[C@@H](CC(=O)O)C(=O)N[C@@H](CCCCN)C(=O)N[C@@H](C)C(=O)N1CCC[C@H]1C(=O)N1CCC[C@H]1C(=O)NCC(=O)N[C@H](C(=O)O)C(C)C)[C@@H](C)O [CK2N1]	–	–	–	940	325	–	–	824	357	–

Continued, in another order:

IC50 (PSG G322A G335A (PSD-95); [2]) [µM]	Ki (PSG G322A G335A (PSD-95); [3]) [µM]	IC50 (PSG G322A (PSD-95); [4]) [µM]	IC50 (PSG G322A G335A (PSD-95); [5]) [µM]	Ki (PSG G322A G335A (PSD-95); [6]) [µM]	IC50 (PSG G335A (PSD-95); [7]) [µM]	Ki (PSG G335A (PSD-95); [7]) [µM]	IC50 (PSG G322A (PSD-95); [7]) [µM]	Ki (PSG G322A (PSD-95); [7]) [µM]	Molecule	other results
944	327	1210	–	–	–	–	–	–	CC(=O)N[C@@H](Cc1ccc(O)cc1)C(=O)N[C@@H](CC(=O)O)C(=O)N[C@@H](CCCCN)C(=O)N[C@@H](CCCNC(=N)N)C(=O)N[C@@H](CC(=O)O)C(=O)N[C@@H](CO)C(=O)N[C@@H](CCC(=O)O)C(=O)N[C@@H](CCC(=O)O)C(=O)N[C@@H](CCC(=O)O)C(=O)N[C@@H](CO)C(=O)N[C@@H](CCC(=O)O)C(=O)N[C@@H](CO)C(=O)N[C@H](C(=O)N[C@@H](C)C(=O)N[C@@H](CC(C)C)C(=O)O)[C@@H](C)O [RHG44]	Ki (PSG G322A (PSD-95); [4]): 526 µM
1700	590	–	–	–	–	–	–	–	Ac-YYETGSLSFAGDERI [SEZ6]	–
–	–	–	1070	370	–	–	–	–	Ac-YQETLFVGNDQVSEI [TM108]	–
–	–	–	880	304	–	–	867	376	CC(=O)N[C@@H](Cc1ccc(O)cc1)C(=O)N[C@H](C(=O)N[C@@H](CCC(=O)O)C(=O)N[C@@H](CO)C(=O)N[C@@H](CC(C)C)C(=O)N[C@@H](CO)C(=O)N[C@@H](CO)C(=O)N[C@@H](CCC(=O)O)C(=O)N[C@@H](CO)C(=O)N[C@H](C(=O)N[C@@H](C)C(=O)N[C@H](C(=O)N[C@@H](CO)C(=O)N1CCC[C@H]1C(=O)N[C@H](C(=O)O)C(C)C)[C@@H](C)O)[C@@H](C)O)C(C)C [TNR16]	–
–	–	–	1810	625	721	257	1730	752	CC(=O)N[C@@H](Cc1ccc(O)cc1)C(=O)N[C@@H](C)C(=O)N1CCC[C@H]1C(=O)N[C@@H](C)C(=O)N[C@H](C(=O)N[C@@H](CO)C(=O)N1CCC[C@H]1C(=O)N1CCC[C@H]1C(=O)N[C@@H](CCC(=O)O)C(=O)N[C@@H](CCCNC(=N)N)C(=O)N[C@@H](C)C(=O)N[C@@H](CC(C)C)C(=O)N[C@@H](CO)C(=O)N[C@@H](CCCCN)C(=O)N[C@@H](CC(C)C)C(=O)O)[C@@H](C)O [TUTLB]	–
–	–	–	881	305	1510	538	651	282	Ac-YDVVAVYPNAKVELV [PDLI4]	–
–	–	–	994	344	1130	404	756	328	CC[C@H](C)[C@H](NC(=O)[C@H](Cc1ccccc1)NC(=O)[C@H](Cc1ccc(O)cc1)NC(=O)[C@@H]1CCCN1C(=O)[C@H](CCC(N)=O)NC(=O)[C@H](Cc1ccc(O)cc1)NC(C)=O)C(=O)N[C@H](C(=O)N[C@@H](CC(N)=O)C(=O)N[C@@H](CO)C(=O)N[C@@H](CCCCN)C(=O)N[C@H](C(=O)N[C@@H](CCC(=O)O)C(=O)N[C@H](C(=O)N[C@H](C(=O)N[C@H](C(=O)O)C(C)C)[C@@H](C)O)C(C)C)[C@@H](C)O)[C@@H](C)O [SHSA9]	–
–	–	914	–	–	–	–	–	–	Ac-YVMQDESFPASKIEL [MAP1B]	Ki (PSG G322A (PSD-95); [4]): 396 µM
